Consider five compounds from publication PMC4344604, “Synthesis and Biological Evaluation of Carbocyclic Analogues of Pachastrissamine” (Marine Drugs, 2015).

Where two headings read alike, the source gives them in different places.

For one test, the target named is T1, SphK1 (Homo sapiens, UniProt Q9NYA1).
T1 construct: commercial enzyme from BPS Bioscience; human given only for the docking structure 3VZB
The experiment in a line: ADP-Glo kinase assay. Type of test: biochemical. On the technique in general: In ADP-Glo the light output rises with the ADP produced.

The target of the next test is T2, SphK2 (Homo sapiens, UniProt Q9NRA0).
T2 construct: commercial enzyme from BPS Bioscience
T2 sequence (Q9NRA0 1-654): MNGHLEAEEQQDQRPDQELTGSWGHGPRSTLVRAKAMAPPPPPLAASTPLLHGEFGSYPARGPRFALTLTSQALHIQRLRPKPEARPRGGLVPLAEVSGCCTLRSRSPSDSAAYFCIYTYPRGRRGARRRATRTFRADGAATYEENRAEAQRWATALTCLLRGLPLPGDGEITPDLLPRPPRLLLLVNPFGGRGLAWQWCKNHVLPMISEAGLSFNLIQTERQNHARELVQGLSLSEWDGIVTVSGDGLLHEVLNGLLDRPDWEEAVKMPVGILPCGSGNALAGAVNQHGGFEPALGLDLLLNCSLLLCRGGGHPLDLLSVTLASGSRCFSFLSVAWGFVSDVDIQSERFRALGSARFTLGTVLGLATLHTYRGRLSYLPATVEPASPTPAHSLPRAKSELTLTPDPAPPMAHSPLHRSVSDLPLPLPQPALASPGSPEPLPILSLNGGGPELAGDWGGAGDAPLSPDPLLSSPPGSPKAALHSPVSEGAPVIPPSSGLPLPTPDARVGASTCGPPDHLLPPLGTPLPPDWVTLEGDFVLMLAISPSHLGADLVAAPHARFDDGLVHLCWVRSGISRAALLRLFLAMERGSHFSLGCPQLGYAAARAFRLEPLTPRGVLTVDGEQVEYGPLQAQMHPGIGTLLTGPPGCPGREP
The experiment in a line: ADP-Glo kinase assay. In kind it is biochemical. The text has this:
ADP-Glo kinase assay on SphK2

T1 sequence (Q9NYA1 whole entry): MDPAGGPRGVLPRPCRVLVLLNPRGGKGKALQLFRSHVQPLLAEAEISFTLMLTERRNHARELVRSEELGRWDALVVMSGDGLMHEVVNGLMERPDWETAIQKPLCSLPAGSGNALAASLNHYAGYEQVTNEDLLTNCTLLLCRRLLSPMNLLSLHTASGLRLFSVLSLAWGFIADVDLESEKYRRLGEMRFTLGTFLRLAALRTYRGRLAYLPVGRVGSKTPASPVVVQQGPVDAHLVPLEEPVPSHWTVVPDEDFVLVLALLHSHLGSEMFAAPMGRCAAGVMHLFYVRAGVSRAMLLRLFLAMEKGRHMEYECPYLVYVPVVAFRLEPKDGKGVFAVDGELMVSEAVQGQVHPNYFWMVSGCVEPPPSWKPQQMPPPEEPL

As to `CCCCCCCCCCCC[C@@H]1CC[C@H](N)[C@@H]1O` [4a, (1R,2S,5R)-2-Amino-5-dodecylcyclopentan-1-ol], the IC50 – broadly, the concentration needed to halve the response being measured – at SphK1 was 58.2 µM; against SphK2 it was more than 100 µM.
`CCCCCCCCCCCCCC[C@@H]1CC[C@H](N)[C@@H]1O` [4b, (1R,2S,5R)-2-Amino-5-tetradecylcyclopentan-1-ol]: the concentration for half-maximal inhibition (IC50) against SphK1 amounted to 7.5 µM; at SphK2, 20.1 µM.
With `CCCCCCCCCCCCCCCC[C@@H]1CC[C@H](N)[C@@H]1O` [4c, (1R,2S,5R)-2-Amino-5-hexadecylcyclopentan-1-ol], the figures for the IC50 against SphK1 and on SphK2 were 41.3 µM and more than 100 µM, respectively.
On SphK2 (1 µM sphingosine, 150 µM ATP, 5 mM MgCl2, pH 7.2, 1% DMSO, 1 h, room temperature), `CCCCCCCCCCCCC/C=C/[C@@H](O)[C@H](CO)N(C)C` [N,N-dimethylsphingosine] came in with an IC50 of 19.9 µM.
Take `CCCCCCCCCCCCCC[C@@H]1OC[C@H](N)[C@@H]1O` [compound 1, pachastrissamine]: the IC50 on SphK1 is 12 µM; against SphK2 it was 41.8 µM.
